Literature values in PMC6311893, “Computational prediction of plasma protein binding of cyclic peptides from small molecule experimental data using sparse modeling techniques” (BMC Bioinformatics, 2018).
Like-named read-outs stand apart in the source and are kept apart here.

Tested on: plasma protein
Details: cited from earlier work
[1] = fraction bound to plasma protein, small molecule dataset, sheet 1-SM, ref Ingle et al.
[2] = fraction bound to plasma protein, small molecule dataset, sheet 1-SM, Set Dtr, ref Ingle et al.
[3] = fraction bound to plasma protein, small molecule dataset, sheet 1-SM (Set Dte = test, Dtr = training), ref Ingle et al.

Structure (SMILES) | PPB (fb) [1] | PPB (fb) [2] | other results
N=C(N)c1ccc(OCCCCCOc2ccc(C(=N)N)cc2)cc1 [pentamidine] | 0.7 |  | 
CCOC(=O)c1c(N)sc2c1CCN(Cc1ccccc1)C2 [Tinoridine] | 0.92 |  | 
C#C[C@]1(O)CC[C@H]2[C@@H]3CCC4=CC(=O)CC[C@@H]4[C@H]3CC[C@@]21CC [Levonorgestrel] |  | 0.975 | 
CC1=C(C/C=C(\C)CCCC(C)CCCC(C)CCCC(C)C)C(=O)c2ccccc2C1=O (centres unmarked) [vitamin-K] |  | 0.9 | 
O=C(OCCN1CCCCCC1)C(c1ccsc1)C1CCCCC1 (centres unmarked) [Cetiedil] |  |  | PPB (fb) [3]: 0.74
CN(c1nccc(=O)[nH]1)C1CCN(c2nc3ccccc3n2Cc2ccc(F)cc2)CC1 [mizolastine] | 0.98 |  | 
Cc1cccc(C)c1NC(=O)NCCCNC(C)C [Recainam] |  | 0.14 | 
O=C(O)[C@H]1/C(=C/CO)O[C@@H]2CC(=O)N21 [clavulanate] |  |  | PPB (fb) [3]: 0.23
CCCCCCCN(CC)CCCC(O)c1ccc(NS(C)(=O)=O)cc1 (centres unmarked) [Ibutilide] |  | 0.4 | 
CNC(C)Cc1ccc2c(c1)OCO2 (centres unmarked) [methylenedioxymethamphetamine] |  |  | PPB (fb) (plasma): 0.65
Cc1ncsc1CCCl [Chlormethiazole] |  |  | PPB (fb) (plasma): 0.64
CC1(C)SC2C(NC(=O)c3ccccc3-c3ccccc3)C(=O)N2C1C(=O)O (centres unmarked) [penicillin16] | 0.91 |  | 
CO/N=C(\C(=O)N[C@@H]1C(=O)N2C(C(=O)O)=C(C)CS[C@H]12)c1csc(N)n1 [Cefetamet] |  | 0.22 | 
Nc1ccn([C@H]2CC[C@@H](CO)O2)c(=O)n1 [zalcitabine] |  | 0.03 | 
COc1cc(CCN)cc(OC)c1OC [mescaline] |  |  | PPB (fb) (plasma): 0.15
CC1(C)S[C@@H]2[C@H](NC(=O)[C@H](NC(=O)N3CCNC3=O)c3ccccc3)C(=O)N2[C@H]1C(=O)O [Azlocillin] |  | 0.32 | 

Structure (SMILES) | PPB (fb) [1] | PPB (fb) [2] | other results
O=C(O)c1ccccc1O [salicylate] | 0.85 |  | 
CC(CC(c1ccccc1)c1ccccc1)NC(C)(C)C (centres unmarked) [Terodiline] | 0.88 |  | 
CCN(CC)CCCC(C)Nc1ccnc2cc(Cl)ccc12 (centres unmarked) [Chloroquine] |  | 0.58 | 
CNC(=C[N+](=O)[O-])NCCSCc1csc(CN(C)C)n1 [Nizatidine] |  | 0.32 | 
Cc1ccc(S(=O)(=O)NC(=O)NN2CCCCCC2)cc1 [tolazamide] |  | 0.97 | 
CN(C)S(=O)(=O)C1=CC2C(C=C1)Sc1ccccc1N2CCCN1CCC(CCO)CC1 (centres unmarked) [Pipotiazine] | 0.45 |  | 
CCC1(c2ccccc2)C(=O)NCNC1=O [primidone] | 0.2 |  | 
C[C@]12CCC(=O)C=C1CC[C@H]1[C@@H]3CC[C@](O)(C(=O)CO)[C@@]3(C)C[C@H](O)[C@@]12F [fludrocortisone] | 0.75 |  | 
CCC1(CC)C(=O)NC(=O)NC1=O [barbital] |  |  | PPB (fb) (plasma): 0.1
CCCCc1nc(Cl)c(CO)n1Cc1ccc(-c2ccccc2-c2nn[nH]n2)cc1 [Losartan] |  | 0.99 | 
N=C(N)NC(=O)c1cnn(-c2cccc3ncccc23)c1C1CC1 [zoniporide] |  | 0.5 | 
C[C@@H]1C[C@H]2[C@@H]3C[C@H](F)C4=CC(=O)C=C[C@]4(C)[C@H]3[C@@H](O)C[C@]2(C)[C@H]1C(=O)CO [fluocortolone] | 0.9 |  | 
CNS(=O)(=O)CCc1ccc2[nH]cc(C3CCN(C)CC3)c2c1 [Naratriptan] |  |  | PPB (fb) [3]: 0.29
CCC(COc1c(Cl)cccc1Cl)C(=O)NC1C(=O)N2C1SC(C)(C)C2C(=O)O (centres unmarked) [penicillin63] | 0.95 |  | 
O=C(O)c1cc(/N=N/c2ccc(S(=O)(=O)Nc3ccccn3)cc2)ccc1O [sulfasalazine] | 0.97 |  | 
CN(C)CCN(C)N1C=C(c2ccccc2)C2C=CC=CC21 (centres unmarked) [Binedaline] |  |  | PPB (fb) [3]: 0.96
